Laboratory results published in ChEMBL document CHEMBL2331446, “Discovery of a potential anti-inflammatory agent: 3-oxo-29-noroleana-1,9(11),12-trien-2,20-dicarbonitrile” (J Med Chem, 2013).
The source made the active and inactive calls. The calls are words filed in the database; no cut-off is given here.

Columns and labels:
[1] = tested on: RAW264.7; assay: Antiinflammatory activity in mouse RAW264.7 cells assessed as inhibition of LPS-induced NO production incubated for 2 hrs prior to LPS-challenge measured after 24 hrs by Griess method; assay type: functional, cell-based
[2] = tested on: RAW264.7; assay: Antiinflammatory activity in mouse RAW264.7 cells assessed as inhibition of LPS-induced NO production at 50 uM incubated for 2 hrs prior to LPS-challenge measured after 24 hrs by Griess method; assay type: functional
[3] = target: T1, NF-kappa-B inhibitor alpha (Mus musculus) (UniProt Q9Z1E3); assay: Inhibition of IkappaBalpha in mouse RAW264.7 cells assessed as inhibition of LPS-stimulated NF-kappaB p65 subunit accumulation in nucleus at 75 uM incubated for 2 hrs prior to LPS-challenge measured after 30 mins by Western blot analysis; assay type: cell-based
T1 sequence (whole entry): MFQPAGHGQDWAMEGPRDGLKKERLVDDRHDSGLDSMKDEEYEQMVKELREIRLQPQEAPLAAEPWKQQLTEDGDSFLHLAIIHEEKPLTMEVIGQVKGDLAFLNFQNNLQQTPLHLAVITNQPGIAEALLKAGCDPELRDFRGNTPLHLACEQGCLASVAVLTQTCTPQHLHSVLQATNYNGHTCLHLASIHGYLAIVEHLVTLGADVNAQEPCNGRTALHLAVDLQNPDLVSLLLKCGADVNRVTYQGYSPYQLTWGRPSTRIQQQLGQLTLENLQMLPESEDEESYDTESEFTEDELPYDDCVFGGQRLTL

[4] = tested on: RAW264.7; assay: Antiinflammatory activity in mouse RAW264.7 cells assessed as inhibition of LPS-stimulated TNF-alpha mRNA expression at 75 uM incubated for 2 hrs prior to LPS-challenge measured after 8 hrs by quantitative real time PCR analysis; assay type: functional, cell-based
[5] = tested on: RAW264.7; assay: Antiinflammatory activity in mouse RAW264.7 cells assessed as inhibition of LPS-stimulated IL-1beta mRNA expression at 75 uM incubated for 2 hrs prior to LPS-challenge measured after 8 hrs by quantitative real time PCR analysis; assay type: functional, cell-based
[6] = tested on: RAW264.7; assay: Antiinflammatory activity in mouse RAW264.7 cells assessed as inhibition of LPS-induced iNOS protein expression at 75 uM incubated for 2 hrs prior to LPS-challenge measured after 24 hrs by Western blot analysis; assay type: functional, cell-based
[7] = target: MAP kinase p38 (Mus musculus) (UniProt P47811+O08911+Q9WUI1+Q9Z1B7); assay: Inhibition of MAPK p38 in mouse LPS-induced RAW264.7 cells at 75 uM incubated for 2 hrs prior to LPS-challenge measured after 30 mins by Western blot analysis; assay type: cell-based
[8] = target: T1, NF-kappa-B inhibitor alpha (Mus musculus); assay: Inhibition of IkappaB phosphorylation in mouse RAW264.7 cells assessed as decrease in LPS-induced phospho-IkappaBalpha level at 75 uM incubated for 2 hrs prior to LPS-challenge measured after 30 mins by Western blot analysis; assay type: cell-based
[9] = tested on: RAW264.7; assay: Inhibition of ERK phosphorylation in mouse LPS-induced RAW264.7 cells at 75 uM incubated for 2 hrs prior to LPS-challenge measured after 30 mins by Western blot analysis; assay type: cell-based
[10] = tested on: Mus musculus; assay: Antiinflammatory activity in ICR mouse assessed as protection against LPS-induced sepsis at 50 mg/kg, ip administered for 5 days prior to LPS-challenge measured after 2 hrs; assay type: functional, organism-based; set-up: dose 50 mg/kg
[11] = tested on: RAW264.7; assay: Inhibition of JNK phosphorylation in mouse LPS-induced RAW264.7 cells at 75 uM incubated for 2 hrs prior to LPS-challenge measured after 30 mins by Western blot analysis; assay type: cell-based
[12] = target: T1, NF-kappa-B inhibitor alpha (Mus musculus); assay: Inhibition of IkappaBalpha degradation in mouse LPS-induced RAW264.7 cells assessed as increase in cytosolic IkappaB level at 75 uM incubated for 2 hrs prior to LPS-challenge measured after 30 mins by Western blot analysis; assay type: cell-based
[13] = tested on: RAW264.7; assay: Antiinflammatory activity in mouse RAW264.7 cells assessed as inhibition of LPS-stimulated IL-6 mRNA expression at 75 uM incubated for 2 hrs prior to LPS-challenge measured after 8 hrs by quantitative real time PCR analysis; assay type: functional, cell-based
[14] = tested on: RAW264.7; assay: Cytotoxicity against mouse LPS-challenged RAW264.7 cells at 80 uM after 24 hrs by MTT assay; assay type: cell-based; conditions: raw264.7, 24 h
[15] = tested on: RAW264.7; assay: Cytotoxicity against mouse RAW264.7 cells at 80 uM after 24 hrs by MTT assay; assay type: cell-based; conditions: raw264.7, 24 h
[16] = tested on: Mus musculus; assay: Antiinflammatory activity in ICR mouse assessed as protection against LPS-induced sepsis at 20 mg/kg, ip administered for 5 days prior to LPS-challenge measured after 2 hrs; assay type: functional, organism-based; set-up: dose 20 mg/kg
[17] = tested on: Mus musculus; assay: Antiinflammatory activity in ICR mouse assessed as reversal in LPS-induced weight loss at 20 mg/kg, ip administered for 5 days prior to LPS-challenge measured from day 9 to 11 relative to control; assay type: functional, organism-based; set-up: dose 20 mg/kg
[18] = tested on: Mus musculus; assay: Antiinflammatory activity in ICR mouse assessed as reversal in LPS-induced weight loss at 20 mg/kg, ip administered for 5 days prior to LPS-challenge measured up to day 8 relative to control; assay type: functional, organism-based; set-up: dose 20 mg/kg

Row | Compound | IC50 [1] | inhibition at 50 µM [2] | Activity [14] | Activity [15] | further results
1 | CC1(C)[C@@H](O)CC[C@]2(C)[C@H]3C(=O)C=C4[C@@H]5C[C@@](C)(C(=O)O)CC[C@]5(C)CC[C@@]4(C)[C@]3(C)CC[C@@H]12 [ENOXOLONE] | 188 µM | 5.12% |  |  | inhibition [3]: Active; inhibition [4]: Active; inhibition [5]: Active; inhibition [6]: Active; inhibition [7]: Active; inhibition [8]: Active; inhibition [9]: Active; Activity [10]: Active; inhibition [11]: Active; inhibition [12]: Active; inhibition [13]: Active
2 | CC1(C)C(=O)C=C[C@]2(C)C3=CC=C4[C@@H]5C[C@@](C)(C(=O)O)CC[C@]5(C)CC[C@@]4(C)[C@]3(C)CC[C@@H]12 | > 50 µM | 25.1% | Non-toxic | Non-toxic | 
3 | CC1(C)C(=O)CC[C@]2(C)C3=CC=C4[C@@H]5C[C@@](C)(C(=O)O)CC[C@]5(C)CC[C@@]4(C)[C@]3(C)CC[C@@H]12 | > 50 µM | 7.36% | Non-toxic | Non-toxic | 
4 | CC1(C)[C@@H](O)CC[C@]2(C)C3=CC=C4[C@@H]5C[C@@](C)(C(=O)O)CC[C@]5(C)CC[C@@]4(C)[C@]3(C)CC[C@@H]12 | > 50 µM | 15.6% | Non-toxic | Non-toxic | 
5 | CNC(=O)[C@@]1(C)CC[C@]2(C)CC[C@]3(C)C(=CC=C4[C@@]5(C)C=C(O)C(=O)C(C)(C)[C@@H]5CC[C@]43C)[C@@H]2C1 | > 50 µM | 27.6% | Non-toxic | Non-toxic | 
6 | COC(=O)[C@@]1(C)CC[C@]2(C)CC[C@]3(C)C(=CC=C4[C@@]5(C)C=C(I)C(=O)C(C)(C)[C@@H]5CC[C@]43C)[C@@H]2C1 | > 50 µM | 15.3% | Non-toxic | Non-toxic | 
7 | COC(=O)[C@@]1(C)CC[C@]2(C)CC[C@]3(C)C(=CC=C4[C@@]5(C)C=CC(=O)C(C)(C)[C@@H]5CC[C@]43C)[C@@H]2C1 | > 50 µM | 5.5% | Non-toxic | Non-toxic | 
8 | COC(=O)[C@@]1(C)CC[C@]2(C)CC[C@]3(C)C(=CC=C4[C@@]5(C)C=C(O)C(=O)C(C)(C)[C@@H]5CC[C@]43C)[C@@H]2C1 | 38.6 µM | 33.3% | Non-toxic | Non-toxic | 
9 | CC1(C)C(=O)C=C[C@]2(C)C3=CC=C4[C@@H]5C[C@@](C)(C(N)=O)CC[C@]5(C)CC[C@@]4(C)[C@]3(C)CC[C@@H]12 | 40.1 µM | 32.5% | Non-toxic | Non-toxic | 

Compounds with a lower IC50 [1], results first:

Row | IC50 [1] | Compound | inhibition at 50 µM [2] | Activity [14] | Activity [15] | further results
10 | 35.1 µM | CC1(C)C(=O)C(O)=C[C@]2(C)C3=CC=C4[C@@H]5C[C@@](C)(C(N)=O)CC[C@]5(C)CC[C@@]4(C)[C@]3(C)CC[C@@H]12 | 37.5% | Non-toxic | Non-toxic | 
11 | 32.8 µM | CC1(C)C(=O)C(O)=C[C@]2(C)C3=CC=C4[C@@H]5C[C@@](C)(C(=O)O)CC[C@]5(C)CC[C@@]4(C)[C@]3(C)CC[C@@H]12 | 42.1% | Non-toxic | Non-toxic | 
12 | 28.5 µM | CC1(C)C(=O)C=C[C@]2(C)C3=CC=C4[C@@H]5C[C@@](C)(C#N)CC[C@]5(C)CC[C@@]4(C)[C@]3(C)CC[C@@H]12 | 50.2% | Non-toxic | Non-toxic | 
13 | 25.1 µM | CC1(C)C(=O)C(I)=C[C@]2(C)C3=CC=C4[C@@H]5C[C@@](C)(C#N)CC[C@]5(C)CC[C@@]4(C)[C@]3(C)CC[C@@H]12 | 52.9% | Non-toxic | Non-toxic | 
14 | 20.1 µM | CC1(C)C(=O)C(I)=C[C@]2(C)C3=CC=C4[C@@H]5C[C@@](C)(C(=O)O)CC[C@]5(C)CC[C@@]4(C)[C@]3(C)CC[C@@H]12 | 60.3% | Non-toxic | Non-toxic | 
15 | 20 µM | COC(=O)[C@@]1(C)CC[C@]2(C)CC[C@]3(C)C(=CC=C4[C@@]5(C)C=C(C#N)C(=O)C(C)(C)[C@@H]5CC[C@]43C)[C@@H]2C1 | 67.3% | Non-toxic | Non-toxic | 
16 | 6.22 µM | CC1(C)C(=O)C(O)=C[C@]2(C)C3=CC=C4[C@@H]5C[C@@](C)(C(=O)n6ccnc6)CC[C@]5(C)CC[C@@]4(C)[C@]3(C)CC[C@@H]12 | 99% | Non-toxic | Non-toxic | 
17 | 3.08 µM | CC1(C)C(=O)C(C#N)=C[C@]2(C)C3=CC=C4[C@@H]5C[C@@](C)(C(=O)O)CC[C@]5(C)CC[C@@]4(C)[C@]3(C)CC[C@@H]12 | 98.4% | Non-toxic | Non-toxic | 
18 | 1.43 µM | C[C@@H]1C[C@H]2[C@@H]3CCC4=CC(=O)C=C[C@]4(C)[C@@]3(F)[C@@H](O)C[C@]2(C)[C@@]1(O)C(=O)CO [DEXAMETHASONE] | 98.2% |  |  | Activity [16]: Active; Activity [17]: Active; Activity [18]: inactive
